Laboratory results: ChEMBL document CHEMBL4831488, “Design, synthesis, docking, molecular dynamics and bioevaluation studies on novel N-methylpicolinamide and thienopyrimidine derivatives with inhibiting NF-κB and TAK1 activities: Cheminformatics tools RDKit applied in drug design” (Eur J Med Chem, 2021)
Active and inactive are the calls of the source. The calls are words filed in the database; no cut-off is given here.

How the values were obtained:
[1] = tested on: A549; assay: Cell cycle arrest in human A549 cells assessed as accumulation at S phase at 1.8 uM measured after 24 hrs by PI staining based Flow cytometry method (reference value: 34.24%); format: functional
[2] = tested on: A549; assay: Cell cycle arrest in human A549 cells assessed as accumulation at G0/G1 phase at 0.6 uM measured after 24 hrs by PI staining based Flow cytometry method (reference value: 55.54%); format: functional
[3] = tested on: A549; assay: Induction of apoptosis in human A549 cells assessed as necrotic cells at 0.6 uM measured by annexinV-FITC/propidium iodide staining based flow cytometry analysis (reference value: 0.42%); format: functional
[4] = tested on: MAP3K7; assay: Inhibition of human TAK1 in human A549 cells assessed as suppression of TNF-alpha induced TAK1 expression at 0.5 to 5 uM pretreated with compounds for 24 hrs followed by TNF-alpha stimulation for 10 mins by Western blot analysis; conditions: dose 0.5-5 µM, time 1450.0 min
[5] = target: Nuclear factor NF-kappa-B complex (Homo sapiens) (UniProt Q00653+P19838+Q04206); assay: Inhibition of human NF-kB in human A549 cells assessed as suppression of TNF-alpha induced IkBalpha phosphorylation at 0.5 to 5 uM pretreated with compounds for 24 hrs followed by TNF-alpha stimulation for 10 mins by Western blot analysis; format: cell-based; conditions: dose 0.5-5 µM, time 1450.0 min
[6] = tested on: A549; assay: Cell cycle arrest in human A549 cells assessed as accumulation at S phase at 0.6 uM measured after 24 hrs by PI staining based Flow cytometry method (reference value: 34.24%); format: functional
[7] = target: TAK1-TAB1 fusion protein (Homo sapiens, UniProt O43318); assay: Inhibition of Tak1/Tab1 (unknown origin) assessed as inhibition of Tak1 kinase activity preincubated for 30 mins followed by addition of MBP protein and ATP and measured after 2 hrs by ADP-Glo kinase assay
[8] = tested on: MAP3K7; assay: Inhibition of human TAK1 in human A549 cells assessed as suppression of TNF-alpha induced TAK1 phosphorylation at 0.5 to 5 uM pretreated with compounds for 24 hrs followed by TNF-alpha stimulation for 10 mins by Western blot analysis; conditions: dose 0.5-5 µM, time 1450.0 min
[9] = tested on: A549; assay: Cell cycle arrest in human A549 cells assessed as accumulation at G0/G1 phase at 1.8 uM measured after 24 hrs by PI staining based Flow cytometry method (reference value: 55.54%); format: functional

Chain of Nuclear factor NF-kappa-B complex (Homo sapiens) (P19838 whole entry, looked up): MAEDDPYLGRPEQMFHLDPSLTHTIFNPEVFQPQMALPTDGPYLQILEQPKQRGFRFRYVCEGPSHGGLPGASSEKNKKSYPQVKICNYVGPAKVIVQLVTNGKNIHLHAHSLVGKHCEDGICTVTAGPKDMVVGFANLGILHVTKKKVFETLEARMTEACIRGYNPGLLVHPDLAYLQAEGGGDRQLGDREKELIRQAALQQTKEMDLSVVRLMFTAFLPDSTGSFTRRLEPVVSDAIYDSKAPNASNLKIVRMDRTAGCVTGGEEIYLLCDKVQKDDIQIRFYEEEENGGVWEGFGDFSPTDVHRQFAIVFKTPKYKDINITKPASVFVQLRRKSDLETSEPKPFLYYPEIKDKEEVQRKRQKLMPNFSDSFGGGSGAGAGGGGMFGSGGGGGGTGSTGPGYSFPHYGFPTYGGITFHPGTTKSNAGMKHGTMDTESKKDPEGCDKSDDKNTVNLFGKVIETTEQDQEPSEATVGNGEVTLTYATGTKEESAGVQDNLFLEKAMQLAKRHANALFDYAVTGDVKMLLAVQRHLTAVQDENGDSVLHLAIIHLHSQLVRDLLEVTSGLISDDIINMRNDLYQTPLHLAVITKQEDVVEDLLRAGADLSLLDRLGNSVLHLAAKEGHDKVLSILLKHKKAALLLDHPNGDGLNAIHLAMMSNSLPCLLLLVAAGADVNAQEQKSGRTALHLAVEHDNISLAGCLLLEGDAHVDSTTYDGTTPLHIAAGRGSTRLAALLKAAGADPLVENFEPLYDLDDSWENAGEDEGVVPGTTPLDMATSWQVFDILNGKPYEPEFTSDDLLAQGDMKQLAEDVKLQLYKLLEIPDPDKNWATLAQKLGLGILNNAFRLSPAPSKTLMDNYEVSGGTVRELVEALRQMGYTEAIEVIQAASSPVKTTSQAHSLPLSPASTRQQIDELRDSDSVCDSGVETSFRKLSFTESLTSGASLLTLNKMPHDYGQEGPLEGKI
Chain of Nuclear factor NF-kappa-B complex (Homo sapiens) (Q00653 whole entry, looked up): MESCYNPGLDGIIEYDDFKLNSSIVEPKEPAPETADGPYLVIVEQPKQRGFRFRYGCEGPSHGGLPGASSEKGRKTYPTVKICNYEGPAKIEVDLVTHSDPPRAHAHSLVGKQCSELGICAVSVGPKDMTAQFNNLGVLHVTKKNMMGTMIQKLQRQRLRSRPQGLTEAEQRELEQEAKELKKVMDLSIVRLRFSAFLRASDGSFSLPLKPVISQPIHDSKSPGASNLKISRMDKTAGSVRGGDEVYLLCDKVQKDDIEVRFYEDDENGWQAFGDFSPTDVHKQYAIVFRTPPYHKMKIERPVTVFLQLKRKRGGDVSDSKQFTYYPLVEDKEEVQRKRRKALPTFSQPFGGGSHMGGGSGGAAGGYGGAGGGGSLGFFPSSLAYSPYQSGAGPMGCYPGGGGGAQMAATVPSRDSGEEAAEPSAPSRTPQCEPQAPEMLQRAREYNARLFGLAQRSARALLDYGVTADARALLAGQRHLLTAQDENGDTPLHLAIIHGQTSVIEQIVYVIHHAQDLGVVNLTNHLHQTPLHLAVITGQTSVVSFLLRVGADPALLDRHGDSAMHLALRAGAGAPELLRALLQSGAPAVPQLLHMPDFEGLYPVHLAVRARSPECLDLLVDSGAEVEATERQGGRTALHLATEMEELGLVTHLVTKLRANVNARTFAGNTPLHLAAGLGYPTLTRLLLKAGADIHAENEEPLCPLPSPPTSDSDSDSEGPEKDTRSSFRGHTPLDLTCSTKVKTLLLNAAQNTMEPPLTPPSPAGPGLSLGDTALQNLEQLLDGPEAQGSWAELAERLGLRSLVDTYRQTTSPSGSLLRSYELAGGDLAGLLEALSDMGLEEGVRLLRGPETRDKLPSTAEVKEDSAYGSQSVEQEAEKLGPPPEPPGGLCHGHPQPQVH
Chain of Nuclear factor NF-kappa-B complex (Homo sapiens) (Q04206 whole entry, looked up): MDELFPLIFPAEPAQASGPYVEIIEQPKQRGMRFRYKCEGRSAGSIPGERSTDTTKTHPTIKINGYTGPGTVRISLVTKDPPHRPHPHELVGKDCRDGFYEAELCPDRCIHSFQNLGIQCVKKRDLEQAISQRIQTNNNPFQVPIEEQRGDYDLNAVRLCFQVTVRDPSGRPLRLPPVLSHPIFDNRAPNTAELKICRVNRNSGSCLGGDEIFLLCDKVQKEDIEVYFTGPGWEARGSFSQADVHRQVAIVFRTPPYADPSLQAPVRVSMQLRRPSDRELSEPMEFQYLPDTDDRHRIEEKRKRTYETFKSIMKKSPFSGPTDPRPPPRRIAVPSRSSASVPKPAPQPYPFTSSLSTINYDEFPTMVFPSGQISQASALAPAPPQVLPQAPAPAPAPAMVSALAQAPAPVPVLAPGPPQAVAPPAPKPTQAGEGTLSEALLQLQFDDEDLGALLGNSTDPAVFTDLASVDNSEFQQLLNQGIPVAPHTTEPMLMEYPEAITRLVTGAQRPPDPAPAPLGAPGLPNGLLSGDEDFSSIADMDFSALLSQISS
Chain of TAK1-TAB1 fusion protein (O43318 whole entry, looked up, the tested form may be a part): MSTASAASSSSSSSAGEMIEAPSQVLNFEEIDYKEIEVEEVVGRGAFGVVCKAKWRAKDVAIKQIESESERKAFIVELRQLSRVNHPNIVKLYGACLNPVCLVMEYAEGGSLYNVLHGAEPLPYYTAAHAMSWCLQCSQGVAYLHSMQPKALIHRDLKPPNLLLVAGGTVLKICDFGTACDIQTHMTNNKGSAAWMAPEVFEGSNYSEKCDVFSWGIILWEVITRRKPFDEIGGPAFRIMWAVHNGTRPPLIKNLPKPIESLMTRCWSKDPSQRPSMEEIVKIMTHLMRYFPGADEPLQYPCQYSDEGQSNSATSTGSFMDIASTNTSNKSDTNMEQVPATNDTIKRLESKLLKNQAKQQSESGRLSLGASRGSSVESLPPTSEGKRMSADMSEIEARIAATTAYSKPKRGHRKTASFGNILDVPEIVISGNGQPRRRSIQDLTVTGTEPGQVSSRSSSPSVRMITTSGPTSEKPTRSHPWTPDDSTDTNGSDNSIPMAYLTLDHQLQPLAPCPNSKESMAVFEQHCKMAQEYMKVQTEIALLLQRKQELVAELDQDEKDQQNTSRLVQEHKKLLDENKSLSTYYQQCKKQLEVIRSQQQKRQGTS

- inhibition [4]: Active
- inhibition [5]: Active
- IC50 [7]: 580 nM
- inhibition [8]: Active
SMILES: CNC(=O)c1cc(Oc2ccc(Nc3nccc(N4CCCCC4)n3)cc2)ccn1
- Activity [1]: 16.65%
- Activity [2]: 60.53%
- Activity [3]: 0.75%
- Activity [6]: 23.56%
- Activity [9]: 52.78%
